Source: patent US8658791B2, “2-substituted-6-amino-5-alkyl, alkenyl or alkynyl-4-pyrimidinecarboxylic acids and 6-substituted-4-amino-3-alkyl, alkenyl or alkynyl picolinic acids and their use as herbicides” (Dow AgroSciences, LLC, priority 2007, dated 2014)

Columns and labels:
[1] = test system: rice (Oryza sativa); assay: General preemergence herbicidal activity, ORYSA; assay type: in vivo; conditions: applied to soil surface, visual score after 20-22 days, 0 = no injury, 100 = complete kill or no emergence, read-out: Pre-emergent Weed Control ORYSA; for plant injury at 140 g/ha: 140 g ai/ha
Text: (§1) Seeds of the desired test plant species were planted in a soil matrix prepared by mixing a loam soil (43 percent silt, 19 percent clay, and 38 percent sand, with a pH of about 8.1 and an organic matter content of about 1.5 percent) and sand in a 70 to 30 ratio. The soil matrix was contained in plastic pots with a surface area of 127 square centimeters. When required to ensure good germination and healthy plants, a fungicide treatment and/or other chemical or physical treatment was applied. A weighed amount, determined by the highest rate to be tested, of each test compound was placed in a 25 mL glass vial and was dissolved in 6 mL of a 97:3 v/v (volume/volume) mixture of acetone and DMSO to obtain concentrated stock solutions. […] The stock solutions obtained were diluted with 18 mL of a 0.1% v/v aqueous solution of Tween® 20 surfactant to obtain spray solutions containing the highest application rate. Additional application rates were obtained by serial dilution of 12 mL of the high rate solution into a solution containing 3 mL of 97:3 v/v mixture of acetone and DMSO and 9 mL of the 0.1% v/v aqueous solution of Tween® 20 surfactant to obtain 1/2X, 1/4X, 1/8X and 1/16X rates of the high rate. Compound requirements are based upon a 12 mL application volume at a rate of 187 L/ha. Formulated compounds were applied to the soil surface with an overhead Mandel track sprayer equipped with a […] nozzles calibrated to deliver 187 L/ha over an application area of 0.503 square meters at a spray height of 18 inches (43 cm) above the soil surface. Control pots were sprayed in the same manner with the solvent blank. The treated pots and control pots were placed in a greenhouse maintained with an approximate 15 hour photoperiod and temperatures of about 23-29° C. during the day and 22-28° C. during the night. Nutrients and water were added on a regular basis and supplemental lighting was provided with overhead metal halide 1000-Watt lamps as necessary. The water was added by top-irrigation. After 20-22 days, the condition of the test plants that germinated and grew as compared with that of the untreated plants that emerged and grew was determined visually and scored on a scale of 0 to 100 percent where 0 corresponds to no injury and 100 corresponds to complete kill or no emergence.

[2] = test system: velvetleaf (Abutilon theophrasti); assay: General preemergence herbicidal activity, ABUTH; assay type: in vivo; conditions: applied to soil surface, visual score after 20-22 days, 0 = no injury, 100 = complete kill or no emergence, read-out: Pre-emergent Weed Control ABUTH; for pest or weed control at 140 g/ha: 140 g ai/ha
Text: as §1

[3] = test system: barnyardgrass (Echinochloa crus-galli); assay: General preemergence herbicidal activity, ECHCG; assay type: in vivo; conditions: applied to soil surface, visual score after 20-22 days, 0 = no injury, 100 = complete kill or no emergence, read-out: Pre-emergent Weed Control ECHCG; for pest or weed control at 140 g/ha: 140 g ai/ha
Text: as §1

[4] = test system: rice (Oryza sativa); assay: General postemergence herbicidal activity, ORYSA; assay type: in vivo; conditions: Oryza sativa, post-emergence, 336 h, postemergence spray, visual score after 14 days, 0 = no injury, 100 = complete kill, read-out: Post-emergent Weed Control ORYSA; for plant injury at 280 g/ha: 280 g ai/ha; for plant injury at 70 g/ha: 70 g ai/ha; for plant injury at 140 g/ha: 140 g ai/ha
How it was run: (§2)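 Greenhouse-grown plants at the first or second true leaf stage are sprayed at 187 L/ha and kept 14 days, watered from below to prevent wash-off. Percent injury (0–100) is judged by eye against untreated plants.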

[5] = test system: wild poinsettia (Euphorbia heterophylla); assay: General postemergence herbicidal activity, EPHHL; assay type: in vivo; conditions: Euphorbia heterophylla, post-emergence, 336 h, postemergence spray, visual score after 14 days, 0 = no injury, 100 = complete kill, read-out: Post-emergent Weed Control EPHHL; for pest or weed control at 280 g/ha: 280 g ai/ha; for pest or weed control at 70 g/ha: 70 g ai/ha; for pest or weed control at 140 g/ha: 140 g ai/ha
How it was run: as §2

[6] = test system: lambsquarter (Chenopodium album); assay: General preemergence herbicidal activity, CHEAL; assay type: in vivo; conditions: applied to soil surface, visual score after 20-22 days, 0 = no injury, 100 = complete kill or no emergence, read-out: Pre-emergent Weed Control CHEAL; for pest or weed control at 140 g/ha: 140 g ai/ha
Text: as §1

[7] = test system: lambsquarter (Chenopodium album); assay: General postemergence herbicidal activity, CHEAL; assay type: in vivo; conditions: Chenopodium album, post-emergence, 336 h, postemergence spray, visual score after 14 days, 0 = no injury, 100 = complete kill, read-out: Post-emergent Weed Control CHEAL; for pest or weed control at 280 g/ha: 280 g ai/ha; for pest or weed control at 70 g/ha: 70 g ai/ha; for pest or weed control at 140 g/ha: 140 g ai/ha
How it was run: as §2

[8] = test system: wild poinsettia (Euphorbia heterophylla); assay: General preemergence herbicidal activity, EPHHL; assay type: in vivo; conditions: applied to soil surface, visual score after 20-22 days, 0 = no injury, 100 = complete kill or no emergence, read-out: Pre-emergent Weed Control EPHHL; for pest or weed control at 140 g/ha: 140 g ai/ha
Text: as §1

[9] = test system: barnyardgrass (Echinochloa crus-galli); assay: General postemergence herbicidal activity, ECHCG; assay type: in vivo; conditions: Echinochloa crus-galli, post-emergence, 336 h, postemergence spray, visual score after 14 days, 0 = no injury, 100 = complete kill, read-out: Post-emergent Weed Control ECHCG; for pest or weed control at 280 g/ha: 280 g ai/ha; for pest or weed control at 70 g/ha: 70 g ai/ha; for pest or weed control at 140 g/ha: 140 g ai/ha
How it was run: as §2

[10] = test system: velvetleaf (Abutilon theophrasti); assay: General postemergence herbicidal activity, ABUTH; assay type: in vivo; conditions: Abutilon theophrasti, post-emergence, 336 h, postemergence spray, visual score after 14 days, 0 = no injury, 100 = complete kill, read-out: Post-emergent Weed Control ABUTH; for pest or weed control at 280 g/ha: 280 g ai/ha; for pest or weed control at 70 g/ha: 70 g ai/ha; for pest or weed control at 140 g/ha: 140 g ai/ha
How it was run: as §2

| SMILES | plant injury at 140 g/ha [1] | pest or weed control at 140 g/ha [2] | pest or weed control at 140 g/ha [3] | plant injury at 280 g/ha [4] | pest or weed control at 280 g/ha [5] | pest or weed control at 140 g/ha [6] | pest or weed control at 280 g/ha [7] | pest or weed control at 140 g/ha [8] | pest or weed control at 280 g/ha [9] | pest or weed control at 280 g/ha [10] | plant injury at 70 g/ha [4] | pest or weed control at 70 g/ha [5] | pest or weed control at 70 g/ha [7] | pest or weed control at 70 g/ha [9] | pest or weed control at 70 g/ha [10] | plant injury at 140 g/ha [4] | pest or weed control at 140 g/ha [5] | pest or weed control at 140 g/ha [7] | pest or weed control at 140 g/ha [9] | pest or weed control at 140 g/ha [10] | other results |
| --- | --- | --- | --- | --- | --- | --- | --- | --- | --- | --- | --- | --- | --- | --- | --- | --- | --- | --- | --- | --- | --- |
| CCOC(=O)c1nc(C2CC2)nc(N)c1C [Compound 1, 6-Amino-2-cyclopropyl-5-methylpyrimidine-4-carboxylic acid ethyl ester] | 30% | 80% | 80% | 0% | 100% | 100% | 80% | 100% | 0% | 15% |  |  |  |  |  |  |  |  |  |  |  |
| C=Cc1c(N)nc(-c2ccc(Cl)c(OC)c2F)nc1C(=O)OC [Compound 3, 6-Amino-2-(4-chloro-2-fluoro-3-methoxyphenyl)-5-vinylpyrimidine-4-carboxylic acid methyl ester] | 30% | 80% | 80% |  |  | 100% |  | 100% |  |  | 15% | 100% | 100% | 95% | 100% |  |  |  |  |  |  |
| C=Cc1c(N)nc(-c2ccc(Cl)c(F)c2F)nc1C(=O)OC [Compound 11, 6-Amino-2-(4-chloro-2,3-difluorophenyl)-5-vinyl-pyrimidine-4-carboxylic acid methyl ester] |  |  |  |  |  |  |  |  |  |  | 0% | 100% | 100% | 90% | 100% |  |  |  |  |  | plant injury at 70 g/ha ([1]; 70 g ai/ha): 95%; pest or weed control at 70 g/ha ([2]; 70 g ai/ha): 100%; pest or weed control at 70 g/ha ([3]; 70 g ai/ha): 100%; pest or weed control at 70 g/ha ([6]; 70 g ai/ha): 100%; pest or weed control at 70 g/ha ([8]; 70 g ai/ha): 100% |
| CCc1c(N)nc(-c2ccc(Cl)c(OC)c2F)nc1C(=O)OC [Compound 21, 6-Amino-2-(4-chloro-2-fluoro-3-methoxyphenyl)-5-ethyl-pyrimidine-4-carboxylic acid methyl ester] | 0% | 60% | 0% |  |  | 40% |  | 80% |  |  |  |  |  |  |  | 0% | 100% | 100% | 70% | 85% |  |
| C=Cc1c(N)nc(-c2ccc(Cl)cc2)nc1C(=O)O [Compound 43, 6-Amino-2-(4-chlorophenyl)-5-vinylpyrimidine-4-carboxylic acid] | 90% | 100% | 90% | 35% | 100% | 100% | 100% | 100% | 90% | 90% |  |  |  |  |  |  |  |  |  |  |  |
| C=Cc1c(N)nc(-c2ccc(Cl)c(OC)c2)nc1C(=O)O [Compound 45, 6-Amino-2-(4-chloro-3-methoxyphenyl)-5-vinylpyrimidine-4-carboxylic acid] | 30% | 0% | 10% | 0% | 60% | 60% | 95% | 0% | 60% | 0% |  |  |  |  |  |  |  |  |  |  |  |
| C=Cc1c(N)nc(-c2ccc(Cl)c(C(C)F)c2F)nc1C(=O)O (stereo not drawn) [Compound 47, 6-Amino-2-(4-chloro-2-fluoro-3-(1-fluoroethyl)phenyl)-5-vinylpyrimidine-4-carboxylic acid] |  |  |  |  |  |  |  |  |  |  | 50% | 100% | 100% | 100% | 90% |  |  |  |  |  | melting point: 150 to 153 °C |
| C=Cc1c(N)nc(C2CC2)nc1C(=O)O [Compound 57, 6-amino-2-cyclopropyl-5-vinylpyrimidine-4-carboxylic acid] |  |  |  |  |  |  |  |  |  |  |  |  |  |  |  | 5% | 100% | 100% | 30% | 90% | melting point: 187 to 189 °C |
| C=Cc1c(N)cc(-c2ccc(Cl)cc2F)nc1C(=O)O [Compound 60, 4-Amino-6-(4-chloro-2-fluorophenyl)-3-vinylpyridine-2-carboxylic acid] |  |  |  |  |  |  |  |  |  |  |  |  |  |  |  | 15% | 80% | 100% | 35% | 70% | melting point: 209 to 211 °C |
